Laboratory results from patent publication US20130344501A1, “METHODS FOR PRODUCING THREE-DIMENSIONAL PHYSIOLOGICALLY RELEVANT IMMUNE TISSUE SYSTEMS UNDER LOW FLUID SHEAR CONDITIONS” (priority 2010, published 2013).

Legend:
[1] = tested on: ICAM-1 signal of the macrophage-like cells (U937, CD45 positive); test: ICAM-1 signal of macrophage-like cells in the three-dimensional A549-U937 co-culture exposed to 3-oxo-C12 HSL, flow cytometry; assay type: cell-based, human; settings: 100 μM; 20 hours; p<0.01; mean ± SD, N=3
Description: (§1) Mouse anti-human CD45 (Invitrogen) and ICAM-1 (Invitrogen) conjugated with phycoerythrin (PE)-Cy5 and FITC respectively were used for flow cytometry staining. Sample preparation and fluorescent staining of cells. Cells were rinsed 2 times with pre-warmed HBSS (Invitrogen), detached from microcarrier beads/culture flasks with 0.25% trypsin-EDTA (Invitrogen) and counted using a hemocytometer. For inclusion of cells detached from the microcarrier beads (three-dimensional A549 and three-dimensional A549-U937 co-cultures) in the frame of QS exposure studies (see below), whole cultures (both aggregates and bulk liquid) were centrifuged at 1200 rpm for 6 min for each washing step. […]
(§2) Stained cell suspensions were analyzed with an EPICS XL flow cytometer (Beckman-Coulter) or a Cytomics FC 500 system (Beckman-Coulter), equipped with an argon laser and filters for adequate excitation of the chosen fluorophores. Forward scatter, side scatter, FITC-, PI and PE-Cy5 emissions were measured and a total of 10,000 cells were recorded for each sample. […]
(§3) After 72 hours of co-cultivation, aggregates containing 2×10^6 cells were seeded into 6-well plates containing fresh medium (5 ml total volume). […] Consequently, cell viability was further assessed based on the shift in forward scatter signal (see Table 1).

[2] = tested on: U937 cells in A549-U937 3-D co-culture; test: Viability of U937 macrophage-like cells (CD45 positive) in the three-dimensional A549-U937 co-culture after exposure to 3-oxo-C12 HSL; assay type: cell-based, human; settings: for Percentage viability, A549-U937 3-D, U937: U937 co-cultured three-dimensionally with A549, 20 hour exposure
Method: A549 three-dimensional aggregates were grown as described above and after 9 days of three-dimensional A549 cultivation, undifferentiated U937 monocytes were added to the HARV as follows. three-dimensional A549 cells were counted by trypsinization of an aggregate sample and U937 cells (grown in T75 flasks) were added in a 1:1 ratio to the three-dimensional A549 culture. A549 and U937 cells were co-cultured in the HARV at 20 rpm for 72 h. After addition of the monocytes, culture medium was changed after 48 hours of co-cultivation where after medium was replenished every 24 hours.
(§4) Assessment of live-, apoptotic-, and necrotic cell populations was performed with the annexin V-propidium iodide (PI) kit for flow cytometry analysis (ImmunoSource) according to the manufacturer's instructions.
(§5) Stained cell suspensions were analyzed with an EPICS XL flow cytometer (Beckman-Coulter) or a Cytomics FC 500 system (Beckman-Coulter), equipped with an argon laser and filters for adequate excitation of the chosen fluorophores. Forward scatter, side scatter, FITC-, PI and PE-Cy5 emissions were measured and a total of 10,000 cells were recorded for each sample. The respective cell populations were delimited to eliminate background signals originating from cell debris. To assess background fluorescent signals from the tested cell populations, non-stained samples were included.
three-dimensional co-cultures of A549 and U937 cells (as described above) were stained for CD45, since this marker specifically stains leukocytes.
(§6) After 72 hours of co-cultivation, aggregates containing 2×10^6 cells were seeded into 6-well plates containing fresh medium (5 ml total volume). Subsequently, aggregates were spiked with 5, 10 or 100 μM 3-oxo-C12 HSL (Sigma-Aldrich) (starting from a 20 mM stock solution in DMSO, stored at −20° C.). Equal volumes of DMSO, containing the respective amounts of 3-oxo-C12 HSL, were added to each well (25 μl) and a solvent control (25 μl DMSO) was included in each experiment. Six-well plates were placed at 37° C. in a 5% CO2 environment and incubated for 20 hours. For exposure assays of monocytes to 3-oxo-C12 HSL, 2×10^6 U937 cells/well were transferred in 6-well plates. To assess the influence of 3-oxo-C12 HSL on monocytes cultured on microcarrier beads, collagen I-coated beads were added to the cells at the same concentration as for seeding three-dimensional cultures (1 bead per 2500 cells). Subsequently, monocyte cultures (with or without microcarrier beads) were spiked with 3-oxo-C12 HSL (see above). A solvent control was included. After 20 hours incubation, cells were processed for flow cytometry analysis. Cell viability was assayed with trypan blue (0.4%) (Sigma) and/or with the annexin V-PI kit (ImmunoSource) (see above). […] FIG. 9B are examples of the three-dimensional A549-U937 co-culture model exposed to 100 μM 3-oxo-C12 HSL and to the solvent control DMSO. The presented cell population is gated for CD45 positive cells and thus only includes monocytes/macrophages. For FIGS. 9A-B, “I” represents the percentage of dead cells, while “H” is the viable cell population. Consequently, cell viability was further assessed based on the shift in forward scatter signal (see Table 1).

[3] = tested on: U937 cultures; assay type: in vitro ADME, human; settings: compared to three-dimensional A549 and A549-U937 cultures
Method: (§7) Following exposure of three-dimensional cultures and monocytes to 3-oxo-C12 HSL, cell-free samples were taken and stored at −20° C. at indicated time points. The remaining 3-oxo-C12 HSL concentration was assessed as previously described (Crabbé et al., 2008) using the indicator strain E. coli harboring the reporter plasmid pUCP22NotI-PlasB::gfp(ASV)Plac::lasR (Hentzer et al., 2002). A 3-oxo-C12 HSL standard series was included ranging from 1.63 to 100 μM. Culture medium containing microcarrier beads was used as a control to normalize for bioadsorption.

[4] = tested on: three-dimensional A549 and three-dimensional A549-U937 cultures; assay type: in vitro ADME, human; settings: original concentration 100 μM
Method: as §7

[5] = tested on: U937 cells; settings: this and other studies (Tateda 2003, Kravchenko 2006, Li 2009); cited from earlier work
[6] = tested on: ICAM-1 expression of A549 cells (derived from the three-dimensional A549-U937 co-culture); test: ICAM-1 expression of A549 cells from the three-dimensional A549-U937 co-culture exposed to 3-oxo-C12 HSL, flow cytometry; assay type: cell-based, human
Description: as §1, §2, §3

[7] = tested on: A549 3-D; test: Cell viability of three-dimensional A549 monotypic cultures after exposure to 3-oxo-C12 HSL, flow cytometry; assay type: cell-based, human; settings: for Percentage viability, A549 3-D: A549 exposed alone, 20 hour exposure
Method: The three-dimensional A549 monotypic cultures were made as previously described (Carterson et al., 2005).
as §4, §5, §6

CCCCCCCCCC(=O)CC(=O)N[C@H]1CCOC1=O [3-oxo-C12 HSL, N-(3-oxododecanoyl)-Lhomoserine lactone]
increase in the ICAM-1 signal compared to the control samples [1]: 2.93±0.79 fold | macrophage cell death with inclusion of all detached cells ([2]; 100 μM versus DMSO control): no difference in macrophage cell death | decrease of the ratio of U937 cells to the total cell population in three-dimensional A549-U937 aggregates ([2]; 100 μM, compared to the non-exposed control): 37±5% | viability of macrophage-like U937 cells co-cultured with A549 in three-dimensional ([2]; 100 μM, up to 20 hours): minimally affected in viability | death in the attached macrophage-like cell population of the co-culture ([2]; 5 and 10 μM, compared to the control): did not induce increased death | Percentage viability, A549-U937 3-D, U937 ([2]; 5 μM): 97.1 ± 0.01% | Percentage viability, A549-U937 3-D, U937 ([2]; 10 μM): 99.3 ± 0.01% | Percentage viability, A549-U937 3-D, U937 ([2]; 100 μM): 93.8 ± 0.03% | cell death in three-dimensional co-cultured monocytes/macrophages with alveolar epithelium ([2]; concentrations up to 100 μM, either of the cell populations): did not induce cell death | change of 3-oxo-C12 HSL concentration over time [3]: minimal differences in 3-oxo-C12 HSL concentration over time | remaining fraction of the original 3-oxo-C12 HSL concentration ([4]; after 2 hours of exposure): 30% | residual 3-oxo-C12 HSL ([4]; after 20 hours of exposure): no residual 3-oxo-C12 HSL could be detected | concentrations at which apoptosis is induced in pure cultures of monocytes and macrophages [5]: above 25 μM | ICAM-1 expression increase compared to the solvent control ([6]; 100 μM, 20 hours, p<0.01, mean ± SD, N=3): 1.66±0.11 fold | ICAM-1 expression ([6]; lower concentrations of the QS molecule): did not affect ICAM-1 expression | cell death in A549 three-dimensional monotypic cultures ([7]; 5, 10 and 100 μM): did not induce cell death | Percentage viability, A549 3-D ([7]; 5 μM): 97.7 ± 0.00% | Percentage viability, A549 3-D ([7]; 10 μM): 97.8 ± 0.00% | Percentage viability, A549 3-D ([7]; 100 μM): 94.9 ± 0.02%
